Source: patent US10815230B2, “Casein kinase 1 delta inhibitor” (ELECTROPHORETICS LIMITED, priority 2015, dated 2020)

Legend:
MET (Y1235D) = MET (Y1235D) (Homo sapiens, UniProt P08581, Y1235D); assay: KINOMEscan binding assay; conditions: read-out: % Ctrl @ 10000 nM
PIK3C2G = PIK3C2G (Homo sapiens, UniProt O75747); assay: KINOMEscan binding assay; conditions: read-out: % Ctrl @ 10000 nM
ERBB3 = ERBB3 (Homo sapiens, UniProt P21860); assay: KINOMEscan binding assay; conditions: read-out: % Ctrl @ 10000 nM
PDPK1 = PDPK1 (Homo sapiens, UniProt O15530); assay: KINOMEscan binding assay; conditions: read-out: % Ctrl @ 10000 nM
PKAC-beta = PKAC-beta (Homo sapiens, UniProt P22694); assay: KINOMEscan binding assay; conditions: read-out: % Ctrl @ 10000 nM
PIK3CA (I800L) = PIK3CA (I800L) (Homo sapiens, UniProt P42336, I800L); assay: KINOMEscan binding assay; conditions: read-out: % Ctrl @ 10000 nM
MRCKA = MRCKA (Homo sapiens, UniProt Q5VT25); assay: KINOMEscan binding assay; conditions: read-out: % Ctrl @ 10000 nM
PIK3CA (Q546K) = PIK3CA (Q546K) (Homo sapiens, UniProt P42336, Q546K); assay: KINOMEscan binding assay; conditions: read-out: % Ctrl @ 10000 nM
[1] = target: ABL1 (Y253F) phosphorylated (Homo sapiens, UniProt P00519, Y253F); assay: KINOMEscan binding assay; conditions: read-out: % Ctrl @ 10000 nM
ANKK1 = ANKK1 (Homo sapiens, UniProt Q8NFD2); assay: KINOMEscan binding assay; conditions: read-out: % Ctrl @ 10000 nM
HIPK1 = HIPK1 (Homo sapiens, UniProt Q86Z02); assay: KINOMEscan binding assay; conditions: read-out: % Ctrl @ 10000 nM
FLT3 (D835H) = FLT3 (D835H) (Homo sapiens, UniProt P36888, D835H); assay: KINOMEscan binding assay; conditions: read-out: % Ctrl @ 10000 nM
NEK9 = NEK9 (Homo sapiens, UniProt Q8TD19); assay: KINOMEscan binding assay; conditions: read-out: % Ctrl @ 10000 nM
in vitro = conditions: human
Experimental: (§1) The cytotoxicity screening panel was performed by Cyprotex® according to their established protocols. HepG2 cells were plated on 96-well tissue culture treated black walled clear bottomed polystyrene plates, 100 μL per well. The cells were dosed with compound A and comparative compound 324 (WO2012080727; 5-(1,3-benzoxazol-2-yl)-4-(pyridine-4-yl)pyrimidin-2-amine) amine) at […], 0.1 μM, 0.4 μM, 1.0 μM, 4.0 μM, 10 μM, 40 μM and 100 μM. At the end of the incubation period (72 h), the cells were loaded with the relevant dye/antibody for each cell health marker. The plates were then scanned using an automated fluorescent cellular imager, ArrayScan® VTI (Thermo Scientific Cellomics).
(§2) Cytotoxicity was assessed using a multiparametric approach using High Content Screening (HCS) O'Brien P and Haskins J R (2007) High Content Screening: A Powerful Approach to Systems Cell Biology and Drug Discovery Ed. Taylor et al.; 415-425). […] This assay scores compounds across direct and indirect measure of toxicity.

HepG2 cells = assay: in vitro; conditions: human, 72 h
Experimental: as §1, §2

LZK = target: T1, LZK (Homo sapiens, UniProt O43283); assay: KINOMEscan binding assay; conditions: read-out: % Ctrl @ 10000 nM
T1 construct: T7 phage fusion (most assays) or DNA label after HEK293 expression; purchased DiscoveRx (KINOMEscan, LeadHunter Discovery services); host or cells: T7 phage in E. coli (BL21-derived) or HEK293

CAMK1 = CAMK1 (Homo sapiens, UniProt Q14012); assay: KINOMEscan binding assay; conditions: read-out: % Ctrl @ 10000 nM
Chain of CAMK1 (Q14012 whole entry): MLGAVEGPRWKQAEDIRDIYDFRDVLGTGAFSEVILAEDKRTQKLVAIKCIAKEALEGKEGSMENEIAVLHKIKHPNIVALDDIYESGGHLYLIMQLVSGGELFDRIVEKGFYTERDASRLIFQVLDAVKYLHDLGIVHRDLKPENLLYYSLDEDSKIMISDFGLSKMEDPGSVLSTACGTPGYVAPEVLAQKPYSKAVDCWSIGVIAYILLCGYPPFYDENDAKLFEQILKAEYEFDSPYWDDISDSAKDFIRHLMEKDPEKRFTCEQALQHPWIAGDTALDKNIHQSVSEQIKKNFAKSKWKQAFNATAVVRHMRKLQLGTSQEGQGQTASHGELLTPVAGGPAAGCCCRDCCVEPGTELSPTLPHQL

[2] = target: RPS6KA4 Kin.Dom.2-C-terminal (Homo sapiens, UniProt O75676); assay: KINOMEscan binding assay; conditions: read-out: % Ctrl @ 10000 nM
ALK = ALK (Homo sapiens, UniProt Q9UM73); assay: KINOMEscan binding assay; conditions: read-out: % Ctrl @ 10000 nM
Chain of ALK (Q9UM73 19-1620): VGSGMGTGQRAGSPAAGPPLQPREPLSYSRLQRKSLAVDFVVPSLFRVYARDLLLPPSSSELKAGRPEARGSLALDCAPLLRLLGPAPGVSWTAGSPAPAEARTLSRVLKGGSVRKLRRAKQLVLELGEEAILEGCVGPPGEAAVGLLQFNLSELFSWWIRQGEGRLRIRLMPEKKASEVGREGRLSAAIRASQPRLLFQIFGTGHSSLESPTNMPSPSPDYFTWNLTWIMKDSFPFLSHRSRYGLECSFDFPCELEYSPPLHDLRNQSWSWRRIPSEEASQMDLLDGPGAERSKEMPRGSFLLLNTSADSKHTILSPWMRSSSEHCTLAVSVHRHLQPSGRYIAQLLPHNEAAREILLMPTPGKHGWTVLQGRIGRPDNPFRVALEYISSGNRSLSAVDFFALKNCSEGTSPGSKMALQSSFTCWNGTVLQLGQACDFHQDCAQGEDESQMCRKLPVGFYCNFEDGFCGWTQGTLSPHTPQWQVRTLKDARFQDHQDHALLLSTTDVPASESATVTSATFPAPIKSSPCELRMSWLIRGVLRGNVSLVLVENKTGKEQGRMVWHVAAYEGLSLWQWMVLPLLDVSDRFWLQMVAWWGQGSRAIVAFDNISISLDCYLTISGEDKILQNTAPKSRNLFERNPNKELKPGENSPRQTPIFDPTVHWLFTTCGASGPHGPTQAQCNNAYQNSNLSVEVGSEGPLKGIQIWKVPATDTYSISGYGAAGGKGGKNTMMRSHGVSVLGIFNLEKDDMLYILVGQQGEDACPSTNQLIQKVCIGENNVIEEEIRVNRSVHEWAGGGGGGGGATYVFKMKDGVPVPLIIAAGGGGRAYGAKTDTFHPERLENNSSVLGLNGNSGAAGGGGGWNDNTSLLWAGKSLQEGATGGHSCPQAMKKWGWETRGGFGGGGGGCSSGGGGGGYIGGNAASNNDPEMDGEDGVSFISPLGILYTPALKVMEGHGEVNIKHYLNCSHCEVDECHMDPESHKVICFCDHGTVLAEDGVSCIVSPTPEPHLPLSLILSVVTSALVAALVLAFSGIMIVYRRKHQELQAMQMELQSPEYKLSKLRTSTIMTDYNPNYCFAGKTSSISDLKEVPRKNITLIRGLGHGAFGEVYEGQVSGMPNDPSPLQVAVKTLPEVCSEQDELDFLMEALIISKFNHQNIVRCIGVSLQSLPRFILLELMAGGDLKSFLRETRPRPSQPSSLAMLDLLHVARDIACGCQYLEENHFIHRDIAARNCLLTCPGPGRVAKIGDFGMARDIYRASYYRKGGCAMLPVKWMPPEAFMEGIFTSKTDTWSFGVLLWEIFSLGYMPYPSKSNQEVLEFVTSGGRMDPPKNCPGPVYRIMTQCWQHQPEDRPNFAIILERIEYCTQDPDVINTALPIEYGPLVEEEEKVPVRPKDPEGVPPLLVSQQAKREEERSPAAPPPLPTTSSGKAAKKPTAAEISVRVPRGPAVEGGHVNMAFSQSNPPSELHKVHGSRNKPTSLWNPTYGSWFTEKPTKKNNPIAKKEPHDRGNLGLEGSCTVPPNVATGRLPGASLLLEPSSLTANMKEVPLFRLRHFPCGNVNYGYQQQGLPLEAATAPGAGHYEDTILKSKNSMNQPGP

AXL = AXL (Homo sapiens, UniProt P30530); assay: KINOMEscan binding assay; conditions: read-out: % Ctrl @ 10000 nM
GRK1 = GRK1 (Homo sapiens, UniProt Q15835); assay: KINOMEscan binding assay; conditions: read-out: % Ctrl @ 10000 nM
SIK2 = SIK2 (Homo sapiens, UniProt Q9H0K1); assay: KINOMEscan binding assay; conditions: read-out: % Ctrl @ 10000 nM
YSK1 = target: T2, YSK1 (Homo sapiens, UniProt O00506); assay: KINOMEscan binding assay; conditions: read-out: % Ctrl @ 10000 nM
T2 construct: purchased DiscoveRx (KINOMEscan, LeadHunter Discovery services)

SYK = SYK (Homo sapiens, UniProt P43405); assay: KINOMEscan binding assay; conditions: read-out: % Ctrl @ 10000 nM
DMPK = DMPK (Homo sapiens, UniProt Q09013); assay: KINOMEscan binding assay; conditions: read-out: % Ctrl @ 10000 nM
Chain of DMPK (Q09013 whole entry): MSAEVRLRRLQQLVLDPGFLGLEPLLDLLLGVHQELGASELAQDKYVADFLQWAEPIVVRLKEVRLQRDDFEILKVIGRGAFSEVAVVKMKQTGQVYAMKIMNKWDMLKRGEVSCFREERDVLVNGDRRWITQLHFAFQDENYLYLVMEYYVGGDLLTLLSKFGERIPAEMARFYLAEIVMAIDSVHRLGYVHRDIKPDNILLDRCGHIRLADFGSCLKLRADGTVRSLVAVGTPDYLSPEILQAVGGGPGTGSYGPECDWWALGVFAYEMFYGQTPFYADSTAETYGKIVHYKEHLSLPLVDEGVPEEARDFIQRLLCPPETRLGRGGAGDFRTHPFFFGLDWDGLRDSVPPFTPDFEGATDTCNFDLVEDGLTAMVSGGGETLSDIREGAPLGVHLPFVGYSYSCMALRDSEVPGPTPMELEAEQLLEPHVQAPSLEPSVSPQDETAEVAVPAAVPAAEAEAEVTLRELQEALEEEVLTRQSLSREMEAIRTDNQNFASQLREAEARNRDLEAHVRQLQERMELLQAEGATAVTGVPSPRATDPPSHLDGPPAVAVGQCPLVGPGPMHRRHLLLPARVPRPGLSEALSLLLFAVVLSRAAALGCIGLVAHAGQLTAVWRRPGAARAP

ERK1 = ERK1 (Homo sapiens, UniProt P27361); assay: KINOMEscan binding assay; conditions: read-out: % Ctrl @ 10000 nM
PRKCH = PRKCH (Homo sapiens, UniProt P24723); assay: KINOMEscan binding assay; conditions: read-out: % Ctrl @ 10000 nM
GSK3A = GSK3A (Homo sapiens, UniProt P49840); assay: KINOMEscan binding assay; conditions: read-out: % Ctrl @ 10000 nM
ADCK4 = ADCK4 (Homo sapiens, UniProt Q96D53); assay: KINOMEscan binding assay; conditions: read-out: % Ctrl @ 10000 nM
NIM1 = NIM1 (Homo sapiens, UniProt Q8IY84); assay: KINOMEscan binding assay; conditions: read-out: % Ctrl @ 10000 nM
LRRK2 = LRRK2 (Homo sapiens, UniProt Q5S007); assay: KINOMEscan binding assay; conditions: read-out: % Ctrl @ 10000 nM
Chain of LRRK2 (Q5S007 whole entry): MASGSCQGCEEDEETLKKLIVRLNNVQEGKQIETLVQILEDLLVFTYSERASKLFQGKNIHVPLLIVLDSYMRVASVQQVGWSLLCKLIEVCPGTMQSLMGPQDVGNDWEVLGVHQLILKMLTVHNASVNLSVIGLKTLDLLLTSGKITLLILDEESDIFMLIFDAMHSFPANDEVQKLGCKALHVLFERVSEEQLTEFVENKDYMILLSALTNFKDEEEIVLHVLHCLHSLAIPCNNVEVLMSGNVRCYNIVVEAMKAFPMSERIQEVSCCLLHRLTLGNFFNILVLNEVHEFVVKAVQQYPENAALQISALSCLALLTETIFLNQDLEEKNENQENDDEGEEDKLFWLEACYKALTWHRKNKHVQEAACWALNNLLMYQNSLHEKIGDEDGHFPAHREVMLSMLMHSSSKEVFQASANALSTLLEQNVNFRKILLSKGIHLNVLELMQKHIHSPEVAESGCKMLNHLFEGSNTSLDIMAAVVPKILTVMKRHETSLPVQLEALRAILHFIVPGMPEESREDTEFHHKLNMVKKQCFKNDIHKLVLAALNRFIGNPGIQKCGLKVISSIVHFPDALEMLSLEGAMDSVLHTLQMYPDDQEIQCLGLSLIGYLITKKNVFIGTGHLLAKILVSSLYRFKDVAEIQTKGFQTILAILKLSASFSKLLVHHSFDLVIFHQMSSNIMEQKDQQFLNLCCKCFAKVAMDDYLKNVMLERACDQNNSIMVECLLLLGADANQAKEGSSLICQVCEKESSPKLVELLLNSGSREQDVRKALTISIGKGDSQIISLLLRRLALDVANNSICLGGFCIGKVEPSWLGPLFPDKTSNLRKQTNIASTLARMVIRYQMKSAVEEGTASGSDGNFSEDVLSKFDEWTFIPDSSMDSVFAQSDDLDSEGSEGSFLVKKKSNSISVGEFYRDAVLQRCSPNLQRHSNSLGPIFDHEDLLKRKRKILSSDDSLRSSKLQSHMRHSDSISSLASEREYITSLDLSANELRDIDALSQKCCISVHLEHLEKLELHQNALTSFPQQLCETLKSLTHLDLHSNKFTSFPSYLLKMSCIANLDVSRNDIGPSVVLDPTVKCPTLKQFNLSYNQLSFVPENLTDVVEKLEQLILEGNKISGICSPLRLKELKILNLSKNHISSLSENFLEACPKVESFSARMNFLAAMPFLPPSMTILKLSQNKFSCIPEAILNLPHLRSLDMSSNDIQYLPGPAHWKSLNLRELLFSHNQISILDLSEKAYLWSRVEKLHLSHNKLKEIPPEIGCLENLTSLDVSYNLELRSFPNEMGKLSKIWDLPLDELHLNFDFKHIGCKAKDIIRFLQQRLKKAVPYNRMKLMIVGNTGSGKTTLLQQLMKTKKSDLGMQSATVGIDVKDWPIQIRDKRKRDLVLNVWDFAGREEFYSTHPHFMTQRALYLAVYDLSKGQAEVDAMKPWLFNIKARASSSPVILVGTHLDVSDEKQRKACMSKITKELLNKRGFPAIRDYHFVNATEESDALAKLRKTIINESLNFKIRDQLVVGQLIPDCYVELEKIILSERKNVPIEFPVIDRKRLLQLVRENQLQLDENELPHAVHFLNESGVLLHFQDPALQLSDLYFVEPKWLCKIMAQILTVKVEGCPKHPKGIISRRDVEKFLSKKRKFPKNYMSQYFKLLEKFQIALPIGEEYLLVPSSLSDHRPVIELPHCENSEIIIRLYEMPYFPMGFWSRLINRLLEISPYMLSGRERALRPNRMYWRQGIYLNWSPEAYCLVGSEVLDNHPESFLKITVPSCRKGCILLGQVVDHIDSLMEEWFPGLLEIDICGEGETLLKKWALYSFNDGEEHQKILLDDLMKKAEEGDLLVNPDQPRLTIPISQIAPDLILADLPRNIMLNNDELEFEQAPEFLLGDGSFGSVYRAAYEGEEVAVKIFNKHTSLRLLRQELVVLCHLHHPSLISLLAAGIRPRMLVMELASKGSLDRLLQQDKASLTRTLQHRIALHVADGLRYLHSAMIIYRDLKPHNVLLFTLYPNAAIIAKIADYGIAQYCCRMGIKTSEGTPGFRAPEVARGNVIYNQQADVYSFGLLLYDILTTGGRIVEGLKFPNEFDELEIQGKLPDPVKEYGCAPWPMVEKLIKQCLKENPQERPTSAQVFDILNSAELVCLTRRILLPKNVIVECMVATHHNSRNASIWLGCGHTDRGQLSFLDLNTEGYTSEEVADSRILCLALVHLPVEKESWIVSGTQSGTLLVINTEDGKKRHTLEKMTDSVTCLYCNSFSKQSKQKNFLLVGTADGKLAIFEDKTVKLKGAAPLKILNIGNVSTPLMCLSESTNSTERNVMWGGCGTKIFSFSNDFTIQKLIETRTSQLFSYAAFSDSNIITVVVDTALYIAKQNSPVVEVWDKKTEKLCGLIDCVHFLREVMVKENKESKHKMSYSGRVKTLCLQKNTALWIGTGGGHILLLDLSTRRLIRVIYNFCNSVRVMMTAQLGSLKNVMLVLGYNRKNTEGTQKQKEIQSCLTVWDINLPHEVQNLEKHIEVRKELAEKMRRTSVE

MST4 = MST4 (Homo sapiens, UniProt Q9P289); assay: KINOMEscan binding assay; conditions: read-out: % Ctrl @ 10000 nM
[3] = target: ABL1 (M351T) phosphorylated (Homo sapiens, UniProt P00519, M351T); assay: KINOMEscan binding assay; conditions: read-out: % Ctrl @ 10000 nM
[4] = Cell membrane permeability AC50
[5] = Mitochondrial membrane potential AC50

Work on `Nc1ncc(-c2nc3ccccc3o2)c(-c2ccncc2)n1` [Comparative Compound 324, 5-(1,3-benzoxazol-2-yl)-4-(pyridine-4-yl)pyrimidin-2-amine] yielded a remaining binding at 10 µM (MET (Y1235D)) of 83%, a remaining binding at 10 µM (PIK3C2G) of 99% and a remaining binding at 10 µM (ERBB3) of 92%. For the same compound, the remaining binding at 10 µM (PDPK1) was 100%, the remaining binding at 10 µM (PKAC-beta) was 95% and the remaining binding at 10 µM (PIK3CA (I800L)) was 52%. For the same compound, the remaining binding at 10 µM (MRCKA) was 99%, the remaining binding at 10 µM (PIK3CA (Q546K)) was 90% and the remaining binding at 10 µM [1] was 78%. The remaining binding at 10 µM (ANKK1) was 71%, the remaining binding at 10 µM (HIPK1) was 64% and the remaining binding at 10 µM (FLT3 (D835H)) was 68%. It also gave a remaining binding at 10 µM (NEK9) of 100%, an AC50 at 72 h (in vitro; Cell Count AC50) of over 100 µM and an AC50 at 72 h (in vitro; [4]) of over 100 µM. It also gave an AC50 at 72 h (in vitro; Cytochrome c AC50) of 82 µM, an AC50 at 72 h (in vitro; DNA structure AC50) of over 100 µM and an AC50 at 72 h (in vitro; Mitochondrial mass AC50) of over 100 µM. The AC50 at 72 h (in vitro; [5]) was over 100 µM, the AC50 at 72 h (in vitro; Nuclear size AC50) was over 100 µM and the “Cell membrane permeability MEC” value (HepG2 cells) was “(11.1↑) μM”. The “Cytochrome c MEC” value (HepG2 cells) was “(22.2↑) μM”, the “DNA structure MEC” value (HepG2 cells) was “(7.33↑) μM” and the “Mitochondrial mass MEC” value (HepG2 cells) was “(16.8↓) μM”. For the same compound, the “Mitochondrial membrane potential MEC” value (HepG2 cells) was “(17.2↑) μM”, the remaining binding at 10 µM (LZK) was 89% and the remaining binding at 10 µM (CAMK1) was 100%. The remaining binding at 10 µM [2] was 100%, the remaining binding at 10 µM (ALK) was 89% and the remaining binding at 10 µM (AXL) was 100%. It also gave a remaining binding at 10 µM (GRK1) of 68%, a remaining binding at 10 µM (SIK2) of 100% and a remaining binding at 10 µM (YSK1) of 84%. It also gave a remaining binding at 10 µM (SYK) of 100%, a remaining binding at 10 µM (DMPK) of 100% and a remaining binding at 10 µM (ERK1) of 96%. For the same compound, the remaining binding at 10 µM (PRKCH) was 99%, the remaining binding at 10 µM (GSK3A) was 86% and the remaining binding at 10 µM (ADCK4) was 100%. For the same compound, the remaining binding at 10 µM (NIM1) was 96%, the remaining binding at 10 µM (LRRK2) was 83% and the remaining binding at 10 µM (MST4) was 68%. The remaining binding at 10 µM [3] was 79%.
`CNc1c(C(N)=O)c2ccccn2c1C(=O)c1ccc(F)cc1` [Compound A, 2-methyl-amino-3-[(4-fluorophenyl)carbonyl]indolizine-1-carboxamide] showed a remaining binding at 10 µM (MET (Y1235D)) of 77%, a remaining binding at 10 µM (PIK3C2G) of 100% and a remaining binding at 10 µM (ERBB3) of 62%. For the same compound, the remaining binding at 10 µM (PDPK1) was 92%, the remaining binding at 10 µM (PKAC-beta) was 63% and the remaining binding at 10 µM (PIK3CA (I800L)) was 72%. For the same compound, the remaining binding at 10 µM (MRCKA) was 94%, the remaining binding at 10 µM (PIK3CA (Q546K)) was 93% and the remaining binding at 10 µM [1] was 50%. It also gave a remaining binding at 10 µM (ANKK1) of 68%, a remaining binding at 10 µM (HIPK1) of 51% and a remaining binding at 10 µM (FLT3 (D835H)) of 60%. The remaining binding at 10 µM (NEK9) was 100%, the AC50 at 72 h (in vitro; Cell Count AC50) was 7.88 µM and the AC50 at 72 h (in vitro; [4]) was over 40 µM. It also gave an AC50 at 72 h (in vitro; Cytochrome c AC50) of over 100 µM, an AC50 at 72 h (in vitro; DNA structure AC50) of over 100 µM and an AC50 at 72 h (in vitro; Mitochondrial mass AC50) of over 40 µM. The AC50 at 72 h (in vitro; [5]) was 43.4 µM, the AC50 at 72 h (in vitro; Nuclear size AC50) was 12.3 µM and the “Cell Count MEC” value (HepG2 cells) was 2.75↓ μM. The “Cell membrane permeability MEC” value (HepG2 cells) was 1.26↑ μM, the “DNA structure MEC” value (HepG2 cells) was 15.1↑ μM and the “Mitochondrial mass MEC” value (HepG2 cells) was 1.34↑ μM. The “Mitochondrial membrane potential MEC” value (HepG2 cells) was 3.31↓ μM, the “Nuclear size MEC” value (HepG2 cells) was 2.44↑ μM and the remaining binding at 10 µM (LZK) was 100%. For the same compound, the remaining binding at 10 µM (CAMK1) was 100%, the remaining binding at 10 µM [2] was 100% and the remaining binding at 10 µM (ALK) was 90%. The remaining binding at 10 µM (AXL) was 95%, the remaining binding at 10 µM (GRK1) was 53% and the remaining binding at 10 µM (SIK2) was 59%. For the same compound, the remaining binding at 10 µM (YSK1) was 64%, the remaining binding at 10 µM (SYK) was 86% and the remaining binding at 10 µM (DMPK) was 100%. The remaining binding at 10 µM (ERK1) was 100%, the remaining binding at 10 µM (PRKCH) was 95% and the remaining binding at 10 µM (GSK3A) was 56%. For the same compound, the remaining binding at 10 µM (ADCK4) was 84%, the remaining binding at 10 µM (NIM1) was 87% and the remaining binding at 10 µM (LRRK2) was 82%. It also gave a remaining binding at 10 µM (MST4) of 65% and a remaining binding at 10 µM [3] of 49%.
